Test results published in the supplement of paper PMC10307832.

Legend:
Assay in all cases: relative viability (nuclei count vs DMSO), 5 days (fraction); higher = more cells survive
[1] = compound: CC1=CC(=CC=C1)NC2=NC(=CS2)C3=CC=NC=C3 + Nc1nc2[nH]cc(CCc3ccc(C(=O)N[C@@H](CCC(=O)O)C(=O)O)cc3)c2c(=O)[nH]1 [Pemetrexed] (partner 0.2 µM)
Summary of the method: (§1)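 The day after seeding in 1536-well plates, lung cancer cell lines were treated by pin tool with a single drug, or with a fixed anchor-drug dose together with five library-drug doses (not always all listed) in √10 steps. After 5 days, a combined fix-and-stain solution (final 0.05% Triton X-100, 1% formaldehyde, 1 ug/ml Hoechst) was added. Nuclei counted on 4× images gave relative viability as treated counts over vehicle counts, reported as the median of duplicate plates.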

[2] = compound: Cc1ccc(NC(=O)c2ccc(CN3CCN(C)CC3)cc2)cc1Nc1nc(-c2cccnc2)cs1 [Masitinib] + CS(=O)(=O)CCNCc1ccc(-c2ccc3ncnc(Nc4ccc(OCc5cccc(F)c5)c(Cl)c4)c3c2)o1 [Lapatinib] (partner 2 µM)
Summary of the method: as §1

[3] = compound: CC1=CC(=CC=C1)NC2=NC(=CS2)C3=CC=NC=C3 + Cc1nc(Nc2ncc(C(=O)Nc3c(C)cccc3Cl)s2)cc(N2CCN(CCO)CC2)n1 [Dasatinib] (partner 0.075 µM)
Summary of the method: as §1

[4] = compound: CC1=CC(=CC=C1)NC2=NC(=CS2)C3=CC=NC=C3 + C[C@]1(O)C[C@@H](c2nc(-c3ccc4ccc(-c5ccccc5)nc4c3)c3c(N)nccn32)C1 [Linsitinib] (partner 1 µM)
Summary of the method: as §1

Cell Line	relative viability ([1]; first compound 0.08 µM)	relative viability ([1]; first compound 0.253 µM)	relative viability ([1]; first compound 0.8 µM)	relative viability ([1]; first compound 2.53 µM)	relative viability ([1]; first compound 8 µM)	relative viability ([2]; first compound 0.01 µM)	relative viability ([2]; first compound 0.03162 µM)	relative viability ([2]; first compound 0.1 µM)	relative viability ([2]; first compound 0.3162 µM)	relative viability ([2]; first compound 1 µM)	relative viability ([3]; first compound 0.08 µM)	relative viability ([3]; first compound 0.8 µM)	relative viability ([3]; first compound 2.53 µM)	relative viability ([3]; first compound 8 µM)	relative viability ([4]; first compound 0.08 µM)	relative viability ([4]; first compound 0.253 µM)	relative viability ([4]; first compound 0.8 µM)	relative viability ([4]; first compound 2.53 µM)	relative viability ([4]; first compound 8 µM)	relative viability ([3]; first compound 0.253 µM)
LC-2-ad	0.269	0.281	0.308	0.258	0.276	0.762	1.02	0.874	0.994	0.962	0.522	0.59	0.431	0.478	0.764	0.821	0.684	0.788	0.739	
COR-L 105	1.01	0.903	0.898	1.02	0.797	0.298	0.379	0.4	0.36	0.312	0.284	0.349	0.279	0.306	0.822	0.738	0.803	0.808	0.653	0.289
NCI-H1437	0.349	0.326	0.27	0.31	0.283	0.661	0.755	0.798	0.832	0.728	0.497	0.586	0.392	0.649	0.945	1.01	0.913	1	0.759	0.438
H3255	0.585	0.546	0.568	0.54	0.54		0.268	0.243	0.213	0.248	0.397	0.489	0.341	0.528	0.95	0.951	0.966	0.795	0.956	0.347
NCI-H2009	0.938	1.05	1	1	0.914	0.567	0.984	0.719	0.834	0.9	0.249	0.264	0.299	0.312	1.15	1.16	1.1	1.18	1.15	0.308
NCI-H1755	0.35	0.445	0.393	0.401	0.397		0.998	0.711	1.07	0.995	0.331	0.355	0.185	0.321	0.949	0.886	0.857	0.911	0.677	0.417
HOP-62	0.325	0.412	0.458	0.369	0.319	0.814	1.11	0.854	1.31	0.937	0.52	0.527	0.594	0.449	0.984	0.706	1.03	1.16	0.725	0.605
LOU-NH91	0.38	0.391	0.348	0.366	0.366	0.781	0.633	0.786	0.563	0.708	0.464	0.432	0.472	0.458	0.82	0.925	0.903	0.979	0.769	0.51
NCI-H23	0.629	0.447	0.66	0.582	0.778	0.889	0.829	1.16	1.19	1.09	0.74	0.741	0.714	0.792	0.491	0.607	0.639	0.584	0.583	0.542
PC-3 [JPC-3]	0.909		1.15	0.961	1.05	0.474	0.416	0.462	0.367	0.422	0.974	0.881	0.87	0.939	0.888	0.878	0.772	0.903	0.91	0.95
NCI-H1563	0.744	0.739	0.717	0.742	0.881	0.945	0.941	0.969	0.945	0.732	0.48	0.498	0.404	0.434	1.11	1.12	1.19	1.29	1.18	0.41
NCI-H520	0.706	0.678	0.677	0.865	0.644	0.949		0.944	0.82	0.917	0.225	0.25	0.209	0.243	0.91	0.935	0.975	0.986	1	0.239
NCI-H1666	0.787	0.749	0.603	0.738	0.674	0.677	0.657	0.706	0.428	0.557	0.734	0.699	0.522	0.582	0.781	0.614	0.432	0.474	0.41	0.737
NCI-H1792	0.453	0.682	0.651	0.67	0.784	0.721	0.405	0.874	0.846	0.995	0.689	0.832	0.54	0.63	0.322	0.33	0.389	0.377	0.398	
